Measurements: US5466698A, “Substituted tetrahydrophyridines and hydroxypiperidines as central nervous system agents” (Warner-Lambert Company, priority 1993, dated 1995)
pIC50: −log10 of the molar value. Like-named read-outs stand apart in the source and are kept apart here.

How the values were obtained:
[1] = tested on: Brain Dopamine Synthesis in Rats; assay: % Reversal of Brain Dopamine Synthesis in Rats; type: in vivo; settings: Rattus norvegicus, IP
[2] = molecular target: [^3 H]Spiroperidol Binding (Rattus norvegicus, UniProt P61169); assay: Inhibition of [^3 H]Spiroperidol Binding, receptor assay
[3] = tested on: Locomotor Activity in Mice; assay: Inhibition of Locomotor Activity in Mice; type: in vivo; settings: Mus musculus, IP

Chain of [^3 H]Spiroperidol Binding (P61169 whole entry): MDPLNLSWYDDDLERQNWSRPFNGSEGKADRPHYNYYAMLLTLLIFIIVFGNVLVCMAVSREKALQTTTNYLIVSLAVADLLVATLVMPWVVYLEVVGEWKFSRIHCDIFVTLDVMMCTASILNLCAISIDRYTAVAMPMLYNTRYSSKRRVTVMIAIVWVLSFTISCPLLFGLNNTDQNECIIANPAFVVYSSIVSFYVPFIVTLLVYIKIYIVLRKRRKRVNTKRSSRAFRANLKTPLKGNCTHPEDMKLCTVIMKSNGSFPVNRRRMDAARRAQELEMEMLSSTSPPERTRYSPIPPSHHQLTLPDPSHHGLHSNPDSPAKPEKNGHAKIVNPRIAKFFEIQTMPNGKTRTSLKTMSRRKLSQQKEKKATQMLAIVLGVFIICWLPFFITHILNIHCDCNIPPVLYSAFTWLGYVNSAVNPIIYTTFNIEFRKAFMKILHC

Structure (SMILES) | inhibition in vivo at 10 mg/kg [1] [%] | pIC50 [2] | ED50 [3] [mg/kg] | pIC50 ([2]; read-out: Inhibition of [^3 H]Spiroperidol Binding IC50, [^3 H]spiroperidol radioligand)
CC(=O)Nc1ccc(C#CCCN2CC=C(c3ccccc3)CC2)nc1 [Example 22, N-[6-[4-(3,6-Dihydro-4-phenyl-1(2H)-pyridinyl)-1-butynyl]-3-pyridinyl]acetamide] | 5 | 7.15 | 0.07 | –
C(#Cc1cccnc1)CCCN1CC=C(c2ccccc2)CC1 [Example 7, 3-[5-(3,6-Dihydro-4-phenyl-1(2H)-pyridinyl)-1-pentynyl]pyridine] | 48 | 7.11 | 0.72 | –
CNc1ccc(C#CCCN2CC=C(c3ccccc3)CC2)cc1 [Example 27, 4-[4-(3,6-Dihydro-4-phenyl-1(2H)-pyridinyl)-1-butynyl]-N-methylbenzenamine] | 45 | 6.89 | 0.56 | –
Nc1ccc(C#CCCN2CC=C(c3cccs3)CC2)nc1 [Example 12, 6-[4-[3,6-Dihydro-4-(2-thienyl)-1(2H)-pyridinyl]-1-butynyl]-3-pyridinamine] | 46 | 6.49 | 0.36 | –
CN(C)c1ccc(C#CCCN2CC=C(c3ccccc3)CC2)nc1 [Example 13, 6-[4-(3,6-Dihydro-4-phenyl-1(2H)-pyridinyl)-1-butynyl]-N,N-dimethyl-3-pyridinamine] | 49 | 6.72 | 0.28 | –
Nc1ccc(C#CCCN2CC=C(c3ccccc3)CC2)cc1 [Example 20, 4-[4-(3,6-Dihydro-4-phenyl-1(2H)-pyridinyl)-1-butynyl]benzenamine] | 51 | 6.37 | 0.36 | –
CC(=O)Nc1ccc(C#CCCN2CC=C(c3ccccc3)CC2)cc1 [Example 24, N-[4-[4-(3,6-Dihydro-4-phenyl-1(2H)-pyridinyl)-1-butynyl]phenyl]acetamide] | – | 7.30 | 0.23 | –
C(#Cc1cccnc1)CCCN1CC=C(c2cccs2)CC1 [Example 8, 3-[5-[3,6-Dihydro-4-(2-thienyl)-1(2H)-pyridinyl]-1-pentynyl]pyridine] | – | 6.68 | 2.7 | –
C(#Cc1cnc2ccccc2c1)CCN1CC=C(c2ccccc2)CC1 [Example 1, 3-[4-(3,6-Dihydro-4-phenyl-1(2H)-pyridinyl)-1-butynyl]quinoline] | 28 | 7.39 | – | –
CNc1ccc(C#CCCN2CC=C(c3ccc(F)cc3)CC2)cn1 [Example 28, 5-[4-[4-(9-Fluorophenyl)-3,6-dihydro-1(2H)-pyridinyl]-1-butynyl]-N-methyl-2-pyridinamine] | 57 | – | 0.6 | 5.90
O=[N+]([O-])c1ccc(C#CCCN2CC=C(c3ccccc3)CC2)cc1 [Example 10, 1,2,3,6-Tetrahydro-1-[4-(4-nitrophenyl)-3-butynyl]-4-phenylpyridine] | 42 | 6.40 | 2.6 | –
C(#Cc1cccnc1)CCN1CC=C(c2ccccc2)CC1 [Example 4, 3-[4-(3,6-Dihydro-4-phenyl-1(2H)-pyridinyl)-1-butynyl]pyridine] | 79 | 7.30 | 0.07 | –
CCCNc1ccc(C#CCCN2CC=C(c3ccccc3)CC2)nc1 [Example 30, 6-[4-(3,6-Dihydro-4-phenyl-1(2H)-pyridinyl)-1-butynyl]-N-propyl-3-pyridinamine] | – | 6.61 | 0.31 | –
Nc1ccc(C#CCCN2CC=C(c3ccccc3)CC2)nc1 [Example 19, 6-[4-(3,6-Dihydro-4-phenyl-1(2H)-pyridinyl)-1-butynyl]-3-pyridinamine] | 59 | 7.07 | 0.15 | –
Nc1ccc(C#CCCN2CC=C(c3ccc(F)cc3)CC2)cn1 [Example 17, 5-[4-[4-(4-Fluorophenyl)-3,6-dihydro-1(2H)-pyridinyl]-1-butynyl]-2-pyridinamine] | 40 | 6.42 | 1.2 | –
CNc1ccc(C#CCCN2CC=C(c3ccccc3)CC2)nc1 [Example 26, 6-[4-(3,6-Dihydro-4-phenyl-1(2H)-pyridinyl)-1-butynyl]-N-methyl-3-pyridinamine] | 0 | 6.86 | 0.22 | –
O=[N+]([O-])c1ccc(C#CCCN2CC=C(c3ccccc3)CC2)nc1 [Example 9, 1,2,3,6-Tetrahydro-1-[4-(5-nitro-2-pyridinyl)-3-butynyl]-4-phenylpyridine] | – | 6.64 | 6.9 | –
C(#Cc1ccccn1)CCN1CC=C(c2ccccc2)CC1 [Example 14, 1,2,3,6-Tetrahydro-4-phenyl-1-[4-(2-pyridinyl)-3-butynyl]pyridine] | 23 | 6.72 | 2.1 | –
CS(=O)(=O)N(c1ccc(C#CCCN2CC=C(c3ccccc3)CC2)nc1)S(C)(=O)=O [Example 31, N-(Methylsulfonyl)-N-[6-[4-(3,6-dihydro-4-phenyl-1(2H)-pyridinyl)-1-butynyl]-3-pyridinyl]methanesulfonamide] | 0 | 7.03 | 0.53 | –
C(#Cc1ccncc1)CCN1CC=C(c2ccccc2)CC1 [Example 11, 4-[4-(3,6-Dihydro-4-phenyl-1(2H)-pyridinyl)-1-butynyl]pyridine] | 79 | 7.36 | 0.1 | –
O=C(Nc1ccc(C#CCCN2CC=C(c3ccccc3)CC2)nc1)c1cccs1 [Example 23, N-[6-[4-(3,6-Dihydro-4-phenyl-1(2H)-pyridinyl)-1-butynyl]-3-pyridinyl]-2-thiophenecarboxamide] | 0 | 5.96 | 1.5 | –
CNc1ccc(C#CCCN2CC=C(c3ccccc3)CC2)cn1 [Example 29, 5-[4-(3,6-Dihydro-4-phenyl-1(2H)-pyridinyl)-1-butynyl]-N-methyl-2-pyridinamine] | 42 | 7.11 | 6.1 | –
C(#Cc1cnc2ccccc2c1)CCCN1CC=C(c2ccccc2)CC1 [Example 6, 3-[5-(3,6-Dihydro-4-phenyl-1(2H)-pyridinyl)-1-pentynyl]quinoline] | – | – | 3.6 | –
CC(=O)Nc1ccc(C#CCCN2CC=C(c3ccccc3)CC2)cn1 [Example 25, N-[5-[4-(3,6-Dihydro-4-phenyl-1(2H)-pyridinyl)-1-butynyl]-2-pyridinyl]acetamide] | – | – | 0.16 | –
C(#Cc1ccc2[nH]ccc2c1)CCN1CC=C(c2ccccc2)CC1 [Example 15, 5-[4-(3,6-Dihydro-4-phenyl-1(2H)-pyridinyl)-1-butynyl]-1H-indole] | – | 7.11 | 1 | –
C(#Cc1cccnc1)CCN1CC=C(c2cccs2)CC1 [Example 3, 3-[4-[3,6-Dihydro-4-(2-thienyl)-1(2H)-pyridinyl]-1-butynyl]pyridine] | 53 | 6.45 | 0.54 | –
C(#Cc1cncc2ccccc12)CCN1CC=C(c2ccccc2)CC1 [Example 2, 4-[4-(3,6-Dihydro-4-phenyl-1(2H)-pyridinyl)-1-butynyl]isoquinoline] | 32 | 7.00 | 2.1 | –
C(#Cc1cccs1)CCN1CC=C(c2ccccc2)CC1 [Example 16, 1,2,3,6-Tetrahydro-4-phenyl-1-[4-(2-thienyl)-3-butynyl]pyridine] | – | 6.94 | 7.6 | –
Nc1ccc(C#CCCN2CC=C(c3ccccc3)CC2)cn1 [Example 21, 5-[4-(3,6-Dihydro-4-phenyl-1(2H)-pyridinyl)-1-butynyl]-2-pyridinamine] | 65 | 7.60 | 0.07 | –
CS(=O)(=O)Nc1ccc(C#CCCN2CC=C(c3ccccc3)CC2)nc1 [Example 32, N-[6-[4-(3,6-Dihydro-4-phenyl-1(2H)-pyridinyl)-1-butynyl]-3-pyridinyl]methanesulfonamide] | – | 7.19 | 1.1 | –
